Results from US20230292776A1, “GAS PHASE TREATMENT OF PRODUCE” (priority 2022, published 2023).

Columns and labels:
Botrytis cinerea (Bc) = assay: Antifungal activity of vapor against Botrytis cinerea (Bc) in grapes; assay type: in vivo; details: Example 12; vapor of 3 mL in a Petri dish for 72 hours
Experimental: (§1) Example 12. The antifungal activity of AITC and DADS vapor against Botrytis cinerea (Bc) in grapes was tested. All samples were wounded by making a 3 mm deep puncture in the skin. Samples were infected by dispensing 1000 Bc spores suspended in 10 μL of water in the wound. The test groups consisted of grapes that were: uninfected and untreated; infected and untreated; exposed to the vapor of 3 mL of AITC in a Petri dish for 72 hours; and exposed to the vapor of 3 mL of DADS in a Petri dish for 72 hours. FIG. 17 quantifies the infection results. […] Both AITC and DADS vapor were effective at controlling Bc mold. Treatment with AITC can potentially lead to changes in color or flavor of the grapes.

grapes = assay: Visible appearance of vapor-treated grapes; assay type: in vivo, grape
Experimental: as §1

[1] = system: Penicillium italicum (Pi); assay: Antifungal activity of vapor against Penicillium italicum (Pi) in wounded, infected mandarins; assay type: in vivo
Experimental: Example 2. The antifungal activity of allyl isothiocyanate (AITC) and DADS vapor was tested against Pd and Penicillium italicum (Pi) in mandarins. All samples were wounded by puncturing with a screw. Mandarins were infected by dispensing either 1000 Pd spores or 1000 Pi spores suspended in 10 μL into the wound. The test groups consisted of mandarins that were: uninfected and untreated; uninfected and treated by dipping in a solution of 1 g/L of imazalil; infected with Pd and untreated; infected with Pd and exposed to AITC; infected with Pd and exposed to DADS; infected with Pi and untreated; infected with Pi and exposed to AITC; and infected with Pi and exposed to DADS. Exposure to AITC or DADS consisted of exposing the mandarins for 72 hours to the vapor of 3 mL of the respective compound dispensed in a Petri dish. […] DADS vapor reduced the incidence of Pd mold by 85% and Pi mold by 30% compared to the respective untreated/infected test groups. […] Both AITC and DADS were effective at preventing fungal growth. The inhibition from AITC was approximately 100%, with some changes in visible appearance.

[2] = system: Penicillium digitatum (Pd); assay: Antifungal activity of vapor against Penicillium digitatum (Pd) in wounded, infected mandarins; assay type: in vivo; details: for effect on Pd mold: Example 5, 125 μL, assessed after 6 days
Experimental: Example 1. The antifungal activity of diallyl disulfide (DADS) vapor against Penicillium digitatum (Pd) was tested in mandarins. All samples were wounded by puncturing with a screw and infected by dispensing 1000 Pd spores suspended in 10 μL of water into each wound. The test groups consisted of mandarins that were: untreated; dipped in a solution of 1 g/L of imazalil; and exposed for 72 hours to the vapor of 3 mL of DADS in a Petri dish.
Example 2. The antifungal activity of allyl isothiocyanate (AITC) and DADS vapor was tested against Pd and Penicillium italicum (Pi) in mandarins. All samples were wounded by puncturing with a screw. Mandarins were infected by dispensing either 1000 Pd spores or 1000 Pi spores suspended in 10 μL into the wound. The test groups consisted of mandarins that were: uninfected and untreated; uninfected and treated by dipping in a solution of 1 g/L of imazalil; infected with Pd and untreated; infected with Pd and exposed to AITC; infected with Pd and exposed to DADS; infected with Pi and untreated; infected with Pi and exposed to AITC; and infected with Pi and exposed to DADS. Exposure to AITC or DADS consisted of exposing the mandarins for 72 hours to the vapor of 3 mL of the respective compound dispensed in a Petri dish.
Example 3. The antifungal activity of a reduced dose of AITC vapor against Pd in mandarins was tested. All samples were wounded by puncturing with a screw. Mandarins were infected by dispensing 1000 Pd spores suspended in 10 μL of water into each wound. The test groups consisted of mandarins that were: uninfected and untreated; infected with Pd and untreated; and exposed to the vapor of 500 μL of AITC in a Petri dish for 72 hours.
Example 4. The antifungal activity of a range of AITC vapor concentrations was tested against Pd in mandarins. All mandarins were wounded by puncturing with a screw and infected by dispensing 1000 Pd spores suspended in 10 μL of water in each wound. The fruit was then placed in an airtight container, a range of AITC volumes were disposed onto a Whatman filter paper disc, the disc was suspended in front of a battery-powered fan, and the container closed for 18 hours. The mandarins were then left at ambient temperature and high humidity for 6 days. The test groups were mandarins that were infected and untreated, and infected and treated with 62.5 μL 125 μL 250 μL and 500 μL on the filter paper disc. […] FIG. 6 is a bar graph showing incidence (% infected) for the test groups.
Example 5. The antifungal activity of a range of AITC vapor exposure times was tested to determine the effects against Pd in mandarins. All samples were wounded by puncturing with a screw. Mandarins were infected by dispensing 1000 Pd spores suspended in 10 μL of water in the wound. The fruit was then placed in an airtight container, 125 μL of AITC was dispensed onto a Whatman filter paper disc, the disc suspended in front of a battery-powered fan, and the container closed for 15 minutes to 2 hours. The test groups were then left at ambient temperature, high humidity, and assessed for Pd mold after 6 days. The test groups consisted of mandarins that were: uninfected and untreated; infected and untreated; infected and treated with 0.5 g/L imazalil; infected, treated with 125 μL of AITC on the filter paper, and exposed to the vapor for 15 minutes, 30 minutes, 1 hour, and 2 hours.

Compound	Bc mold in grapes (Botrytis cinerea (Bc))	visible appearance of grapes (grapes; in vivo)	inhibition of fungal growth (Pi) ([1]; Example 2, 72 hours vapor of 3 mL)	Pd infection ([2]; Example 3, mandarins, vapor of 500 μL in a Petri dish for 72 hours)	severity of Pd infection ([2]; Example 4, 62.5 μL on filter paper disc, airtight container with fan, 18 hours, 6 days)	effect on Pd mold ([2]; 15 minute exposure)	effect on Pd mold ([2]; 2 hour exposure)	visible appearance of grapes (grapes; Example 12, vapor of 3 mL for 72 hours)	reduction of the incidence of Pi mold compared to untreated/infected test group ([1]; Example 2, 72 hours vapor of 3 mL in a Petri dish)	reduction of the incidence of Pd mold compared to the untreated samples ([2]; Example 1, mandarins, 72 hours vapor of 3 mL in a Petri dish)	reduction of the incidence of Pd mold compared to imazalil treated samples ([2]; Example 1, mandarins, 72 hours vapor of 3 mL, imazalil 1 g/L dip)	reduction of the incidence of Pd mold compared to untreated/infected test group ([2]; Example 2, mandarins, 72 hours vapor of 3 mL in a Petri dish)
C=CCN=C=S [AITC, allyl isothiocyanate]	substantially eliminated Bc mold	darkening of the fruit	approximately 100%	substantially prevented Pd infections	reduced the severity of infection relative to the untreated group	little effect on Pd mold	substantially eliminated the mold	–	–	–	–	–
C=CCSSCC=C [DADS, diallyl disulfide]	substantially eliminated Bc mold	–	–	–	–	–	–	appeared unchanged	30%	95.8%	19.1%	85%
